From patent EP0599152A1, “Triazinones and Triazinophthalazinones possessing antiasthmatic/antiallergic, positive inotropic and antihypertensive activities” (ASTA Medica Aktiengesellschaft, priority 1992, dated 1994)

Tests used:
[1] = system: Histamin-Freisetzung aus Mastzellen; assay: allergically induced histamine release (sensitised rats, method of Shore et al.); assay type: cell-based, Ratten; details: Mast cell, concentration 10 µmol/l, read-out: Hemmung der Freisetzung
Excerpt: Die pharmakologische Testung auf Wirksamkeit bei der allergisch induzierten Histaminfreisetzung an sensibilisierten Ratten erfolgte gemäß der Versuchsvorschrift von P.A. Shore et al., I. Pharmacol. Exp. Ther., 127 (1959), S. 182.
Die Verbindung gemäß gemaß Beispiel 1 zeigt folgende Werte: Bei der allergisch induzierten Histamin-Freisetzung ergibt ein Konzentration 10 µmol/l eine 25 % - Hemmung der Freisetzung.

Spätphaseneosinophile = assay: inhibition of late-phase eosinophils in guinea pigs (Cartwright; eosinophil counting); assay type: in vivo, Meerschweinchen; details: 30 mg pro Kilogramm Körpergewicht, p.o.
Protocol: (§1) Die Verbindung gemäß Beispiel 16 zeigt im Versuch der Hemmung der Spätphaseneosinophile in Meerschweinchen gemäß der Vorschrift von Cartwright, Diagnostic Laboratory Hematology, 1968, S. 48 und Mac Fortare et al, Eosinophil Counting, Brit. Med. 9., 2, 1187 (1951) in der Dosis von 30 mg pro Kilogramm Körpergewicht, gegeben p.o., einen Hemmwert von 80 %. Bei der Hemmung der LTD-4-Rezeptor-Bindung gemäß Borbe und Zierenberg, Pharmacopsychiatry 18, 314 319 (1985) ergab sich eine Hemmung von 50 % der Aktivität bei einer Konzentration von 7,4 µmol/l.

LTD-4-Rezeptor = target: T1, LTD-4-Rezeptor (Homo sapiens, UniProt Q9Y271); assay: inhibition of LTD-4 receptor binding (Borbe and Zierenberg); details: read-out: Hemmung von 50 % der Aktivität bei einer Konzentration von
T1 sequence (Q9Y271 1-337): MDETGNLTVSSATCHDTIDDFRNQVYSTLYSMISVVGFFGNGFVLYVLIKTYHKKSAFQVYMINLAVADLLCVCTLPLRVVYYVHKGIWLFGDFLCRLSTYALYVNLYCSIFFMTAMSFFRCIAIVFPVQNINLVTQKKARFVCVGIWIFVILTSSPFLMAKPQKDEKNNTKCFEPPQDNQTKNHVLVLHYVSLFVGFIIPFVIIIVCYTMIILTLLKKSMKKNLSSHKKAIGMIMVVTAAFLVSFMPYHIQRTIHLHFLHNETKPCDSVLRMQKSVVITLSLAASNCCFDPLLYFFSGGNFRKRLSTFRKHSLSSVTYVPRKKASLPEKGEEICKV
Protocol: as §1

Compound	inhibition at 10 µM [1]	Hemmwert (Spätphaseneosinophile)	IC50 (LTD-4-Rezeptor)
O=C1CN2N=C(c3ccccc3)c3ccccc3C2=NN1 [Beispiel 1, 7-Phenyl-2H-triazino(3,4a)phthalazin-3(4H)-on]	25%		
CN1CC(=O)NN=C1c1ccc(OCc2ccc3ccccc3n2)c(Cl)c1 [Beispiel 16, 3-{3-Chlor-4-[(2-chinolyl)methoxy]phenyl}-4-methyl-4,5-dihydro-1,2,4-triazin-6-on]		80%	7.4 µM
